# Key:
# Type in all cases: functional, cell-based
# [1] = system: HeLa; assay: Cytotoxicity against human HeLa cells after 48 hrs by MTT assay
# [2] = system: HepG2; assay: Cytotoxicity against human HepG2 cells after 48 hrs by MTT assay; details: HepG2, 48 h
# [3] = system: A549; assay: Cytotoxicity against human A549 cells after 48 hrs by MTT assay; details: A549, 48 h
# [4] = system: MDA-MB-231; assay: Cytotoxicity against human MDA-MB-231 cells after 48 hrs by MTT assay; details: MDA-MB-231, 48 h
Structure (SMILES),IC50 [1],IC50 [2],IC50 [3],IC50 [4]
COC(=O)[C@@]1(O)c2c(oc3cc(C)cc(O)c3c2=O)O[C@@H]1CCO [CONIOFUROL A],> 120 µM,> 120 µM,> 120 µM,> 120 µM
COC(=O)[C@@H]1c2c(oc3cc(C)cc(O)c3c2=O)OC=C[C@@H]1O [CONIOXEPINOL A],104 µM,> 120 µM,> 120 µM,> 120 µM
COC(=O)[C@@H]1c2c(oc3cc(CO)cc(O)c3c2=O)OC=C[C@@H]1O [CONIOXEPINOL B],36.2 µM,> 120 µM,> 120 µM,> 120 µM
COC(=O)[C@@]1(O)c2c(oc3cc(C)cc(O)c3c2=O)OC=C[C@@H]1O [CONIOXEPINOL C],> 120 µM,> 120 µM,83.6 µM,112 µM
COC(=O)[C@]12Oc3cc(C)cc(O)c3C(=O)C1=C(O)OC=C[C@H]2O [CONIOXEPINOL D],> 120 µM,> 120 µM,40.9 µM,41.4 µM
O=c1[nH]cc(F)c(=O)[nH]1 [FLUOROURACIL],10 µM,,,

# Source: ChEMBL document CHEMBL1157742, “Oxepinochromenones, furochromenone, and their putative precursors from the endolichenic fungus Coniochaeta sp” (J Nat Prod, 2010)
